Measured values: patent EP0365087A1, “Immunotoxins for the treatment or prophylaxis of auto-immune diseases” (priority 1988, dated 1990)
No end group written: not given here.

System: male Lewis-rats
Test: DTH ear swelling after 65 kD-protein challenge in rats with adjuvant arthritis
Format: in vivo
Settings: 0.01 mg/kg injections day 0-5 and day 8-12; 10 µg 65 kD-protein into ear day 22, swelling day 24; group average

Substance: TAVVALELQ-OH [peptide I, Thr-Ala-Val-Val-Ala-Leu-Glu-Leu-Gln-OH]
- % swelling: 2.8 ± 3.4%
